# Data as given in patent publication US10004701B2, “Methods and compositions for treating infection” (UNIVERSITY OF ROCHESTER, priority 2012, dated 2018).
# Structures can show the parent of a compound that is named as a salt. Where two headings read alike, the source gives them in different places.
# Legend:
# Test in all cases: AK assay 384-well format, Prestwick library screening
# [1] = system: K. pneumoniae; assay type: cell-based, Klebsiella pneumoniae; conditions: 50 μM final drug concentration; for fold induction at 50 µM: Klebsiella pneumoniae, 3 h
# [2] = system: P. aeruginosa; assay type: cell-based, Pseudomonas aeruginosa; conditions: 50 μM final drug concentration; for fold induction at 50 µM: Pseudomonas aeruginosa, 3 h
# [3] = system: S. aureus strain USA300-0114; assay type: cell-based, Staphylococcus aureus; conditions: 50 μM final drug concentration; for fold induction at 50 µM: Staphylococcus aureus, USA300, 3 h
# [4] = system: E. faecium; assay type: cell-based, Enterococcus faecium; conditions: 50 μM final drug concentration; for fold induction at 50 µM: Enterococcus faecium, 3 h
# [5] = system: A. baumannii strain 98-37-09; assay type: cell-based, Acinetobacter baumannii; conditions: 50 μM final drug concentration; for fold induction at 50 µM: Acinetobacter baumannii, 983709, 3 h
# [6] = system: E. cloacae; assay type: cell-based, Enterobacter cloacae; conditions: 50 μM final drug concentration; for fold induction at 50 µM: Enterobacter cloacae, 3 h
# [7] = system: E. coli; assay type: cell-based, Escherichia coli; conditions: for fold induction at 50 µM: Escherichia coli, 3 h
# [8] = 384-well format, cutoff for positive-scoring molecules 3-fold increase, read-out: AK-based Prestwick Library Screening Results, K. pneumoniae (increase in extracellular AK activity)
# [9] = 384-well format, cutoff for positive-scoring molecules 3-fold increase, read-out: AK-based Prestwick Library Screening Results, P. aeruginosa (increase in extracellular AK activity)
# [10] = 384-well format, cutoff for positive-scoring molecules 3-fold increase, read-out: AK-based Prestwick Library Screening Results, S. aureus (increase in extracellular AK activity)
# [11] = 384-well format, cutoff for positive-scoring molecules 3-fold increase, read-out: AK-based Prestwick Library Screening Results, E. faecium (increase in extracellular AK activity)
# [12] = 384-well format, cutoff for positive-scoring molecules 3-fold increase, read-out: AK-based Prestwick Library Screening Results, A. baumannii (increase in extracellular AK activity)
# [13] = 384-well format, cutoff for positive-scoring molecules 3-fold increase, read-out: AK-based Prestwick Library Screening Results, E. cloacae (increase in extracellular AK activity)
# [14] = 50 μM final drug concentration, 384-well format, cutoff for positive-scoring molecules 3-fold increase, read-out: AK-based Prestwick Library Screening Results, E. coli (increase in extracellular AK activity)
# [15] = cutoff for positive-scoring molecules 3-fold increase, read-out: AK-based Prestwick Library Screening Results, K. pneumoniae (fold increase in extracellular AK activity)
# [16] = cutoff for positive-scoring molecules 3-fold increase, read-out: AK-based Prestwick Library Screening Results, P. aeruginosa (fold increase in extracellular AK activity)
# [17] = cutoff for positive-scoring molecules 3-fold increase, read-out: AK-based Prestwick Library Screening Results, S. aureus (fold increase in extracellular AK activity)
# [18] = cutoff for positive-scoring molecules 3-fold increase, read-out: AK-based Prestwick Library Screening Results, E. faecium (fold increase in extracellular AK activity)
# [19] = cutoff for positive-scoring molecules 3-fold increase, read-out: AK-based Prestwick Library Screening Results, A. baumannii (fold increase in extracellular AK activity)
# [20] = cutoff for positive-scoring molecules 3-fold increase, read-out: AK-based Prestwick Library Screening Results, E. cloacae (fold increase in extracellular AK activity)
# [21] = planktonic, cutoff for positive 3-fold increase, read-out: AK-based Prestwick Library Screening Results, K. pneumoniae (fold increase in extracellular AK activity)
# [22] = planktonic, cutoff for positive 3-fold increase, read-out: AK-based Prestwick Library Screening Results, P. aeruginosa (fold increase in extracellular AK activity)
# [23] = planktonic, cutoff for positive 3-fold increase, read-out: AK-based Prestwick Library Screening Results, S. aureus (fold increase in extracellular AK activity)
# [24] = planktonic, cutoff for positive 3-fold increase, read-out: AK-based Prestwick Library Screening Results, E. faecium (fold increase in extracellular AK activity)
# [25] = planktonic, cutoff for positive 3-fold increase, read-out: AK-based Prestwick Library Screening Results, A. baumannii (fold increase in extracellular AK activity)
# [26] = planktonic, cutoff for positive 3-fold increase, read-out: AK-based Prestwick Library Screening Results, E. cloacae (fold increase in extracellular AK activity)
# [27] = 50 μM final drug concentration, planktonic, cutoff for positive 3-fold increase, read-out: AK-based Prestwick Library Screening Results, E. coli (fold increase in extracellular AK activity)
smiles,measurement,setting,value
C[C@]12C=CC(=O)C=C1CC[C@@H]1[C@@H]2C(=O)C[C@@]2(C)[C@H]1CC[C@]2(O)C(=O)CO [Prednisone],fold induction at 50 µM,"[1]; planktonic K. pneumoniae, 384-well, cutoff for positive-scoring molecules 3-fold increase, read-out: AK-based Prestwick Library Screening Results: K. pneumoniae (increase in extracellular AK activity)",0.9
same,fold induction at 50 µM,"[2]; planktonic P. aeruginosa, 384-well, cutoff for positive-scoring molecules 3-fold increase, read-out: AK-based Prestwick Library Screening Results: P. aeruginosa (increase in extracellular AK activity)",0.9
same,fold induction at 50 µM,"[3]; planktonic S. aureus, 384-well, cutoff for positive-scoring molecules 3-fold increase, read-out: AK-based Prestwick Library Screening Results: S. aureus (increase in extracellular AK activity)",1.1
same,fold induction at 50 µM,"[4]; planktonic E. faecium, 384-well, cutoff for positive-scoring molecules 3-fold increase, read-out: AK-based Prestwick Library Screening Results: E. faecium (increase in extracellular AK activity)",0.9
same,fold induction at 50 µM,"[5]; planktonic A. baumannii, 384-well, cutoff for positive-scoring molecules 3-fold increase, read-out: AK-based Prestwick Library Screening Results: A. baumannii (increase in extracellular AK activity)",1.2
same,fold induction at 50 µM,"[6]; planktonic E. cloacae, 384-well, cutoff for positive-scoring molecules 3-fold increase, read-out: AK-based Prestwick Library Screening Results: E. cloacae (increase in extracellular AK activity)",1.4
same,fold induction at 50 µM,"[7]; planktonic E. coli, 50 μM final drug concentration, 384-well, cutoff for positive-scoring molecules 3-fold increase, read-out: AK-based Prestwick Library Screening Results: E. coli (increase in extracellular AK activity)",1.2
CC(=O)[C@H]1CC[C@H]2[C@@H]3CC=C4C[C@@H](O)CC[C@]4(C)[C@H]3CC[C@]12C [Pregnenolone],"AK-based Prestwick Library Screening Results, K. pneumoniae (fold increase in extracellular AK activity)","[1]; planktonic, […]",1.1
same,"AK-based Prestwick Library Screening Results, P. aeruginosa (fold increase in extracellular AK activity)","[2]; planktonic, […]",1.1
same,"AK-based Prestwick Library Screening Results, S. aureus (fold increase in extracellular AK activity)","[3]; planktonic, […]",1.1
same,"AK-based Prestwick Library Screening Results, E. faecium (fold increase in extracellular AK activity)","[4]; planktonic, […]",1.1
same,"AK-based Prestwick Library Screening Results, A. baumannii (fold increase in extracellular AK activity)","[5]; planktonic, […]",1.3
same,"AK-based Prestwick Library Screening Results, E. cloacae (fold increase in extracellular AK activity)","[6]; planktonic, […]",1.5
same,"AK-based Prestwick Library Screening Results, E. coli (fold increase in extracellular AK activity)","[7]; 50 μM final drug concentration, planktonic, […]",1.4
CCCNC(C)C(=O)Nc1ccccc1C (stereo not drawn) [Prilocaine hydrochloride],fold induction at 50 µM,[1]; [8],0.7
same,fold induction at 50 µM,[2]; [9],0.9
same,fold induction at 50 µM,[3]; [10],0.8
same,fold induction at 50 µM,[4]; [11],0.9
same,fold induction at 50 µM,[5]; [12],0.9
same,fold induction at 50 µM,[6]; [13],1.3
same,fold induction at 50 µM,[7]; [14],0.9
CCC1(c2ccccc2)C(=O)NCNC1=O [Primidone],fold induction at 50 µM,[1]; [15],0.9
same,fold induction at 50 µM,[2]; [16],1.2
same,fold induction at 50 µM,[3]; [17],1.3
same,fold induction at 50 µM,[4]; [18],0.9
same,fold induction at 50 µM,[5]; [19],1.2
same,fold induction at 50 µM,[6]; [20],1.8
same,fold induction at 50 µM,"[7]; read-out: AK-based Prestwick Library Screening Results, E. coli (fold increase in extracellular AK activity)",1
CCCC(C(=O)OCCN(CC)CC)(c1ccccc1)c1ccccc1 [Proadifen hydrochloride],fold induction at 50 µM,[1]; [15],0.8
same,fold induction at 50 µM,[2]; [16],1.1
same,fold induction at 50 µM,[3]; [17],0.8
same,fold induction at 50 µM,[4]; [18],1.1
same,fold induction at 50 µM,[5]; [19],1.1
same,fold induction at 50 µM,[6]; [20],1.7
same,fold induction at 50 µM,"[7]; 50 μM final drug concentration, cutoff for positive-scoring molecules 3-fold increase, read-out: AK-based Prestwick Library Screening Results, E. coli (fold increase in extracellular AK activity)",1.2
CCCN(CCC)S(=O)(=O)c1ccc(C(=O)O)cc1 [Probenecid],fold induction at 50 µM,[1]; [21],1.1
same,fold induction at 50 µM,[2]; [22],1.2
same,fold induction at 50 µM,[3]; [23],1
same,fold induction at 50 µM,[4]; [24],1
same,fold induction at 50 µM,[5]; [25],1.3
same,fold induction at 50 µM,[6]; [26],1.4
same,fold induction at 50 µM,[7]; [27],1.4
CC(C)(Sc1cc(C(C)(C)C)c(O)c(C(C)(C)C)c1)Sc1cc(C(C)(C)C)c(O)c(C(C)(C)C)c1 [Probucol],fold induction at 50 µM,[1]; [21],0.9
same,fold induction at 50 µM,[2]; [22],1.1
same,fold induction at 50 µM,[3]; [23],0.6
same,fold induction at 50 µM,[4]; [24],0.9
same,fold induction at 50 µM,[5]; [25],1.4
same,fold induction at 50 µM,[6]; [26],1.3
same,fold induction at 50 µM,[7]; [27],1.1
CCN(CC)CCNC(=O)c1ccc(N)cc1 [Procainamide hydrochloride],fold induction at 50 µM,"[1]; planktonic K. pneumoniae, cutoff for positive-scoring molecules 3-fold increase, read-out: AK-based Prestwick Library Screening Results, K. pneumoniae (increase in extracellular AK activity)",0.6
same,fold induction at 50 µM,"[2]; planktonic P. aeruginosa, cutoff for positive-scoring molecules 3-fold increase, read-out: AK-based Prestwick Library Screening Results, P. aeruginosa (increase in extracellular AK activity)",0.6
same,fold induction at 50 µM,"[3]; planktonic S. aureus, cutoff for positive-scoring molecules 3-fold increase, read-out: AK-based Prestwick Library Screening Results, S. aureus (increase in extracellular AK activity)",0.6
same,fold induction at 50 µM,"[4]; planktonic E. faecium, cutoff for positive-scoring molecules 3-fold increase, read-out: AK-based Prestwick Library Screening Results, E. faecium (increase in extracellular AK activity)",1
same,fold induction at 50 µM,"[5]; planktonic A. baumannii, cutoff for positive-scoring molecules 3-fold increase, read-out: AK-based Prestwick Library Screening Results, A. baumannii (increase in extracellular AK activity)",0.7
same,fold induction at 50 µM,"[6]; planktonic E. cloacae, cutoff for positive-scoring molecules 3-fold increase, read-out: AK-based Prestwick Library Screening Results, E. cloacae (increase in extracellular AK activity)",0.9
same,fold induction at 50 µM,"[7]; planktonic E. coli, 50 μM final drug concentration, cutoff for positive-scoring molecules 3-fold increase, read-out: AK-based Prestwick Library Screening Results, E. coli (increase in extracellular AK activity)",0.6
CCN(CC)CCOC(=O)c1ccc(N)cc1 [Procaine hydrochloride],fold induction at 50 µM,[1]; [8],1
same,fold induction at 50 µM,[2]; [9],1
same,fold induction at 50 µM,[3]; [10],1.2
same,fold induction at 50 µM,[4]; [11],0.9
same,fold induction at 50 µM,[5]; [12],1.1
same,fold induction at 50 µM,[6]; [13],1.4
same,fold induction at 50 µM,[7]; [14],1.2
